SMILES strings stand for the structures. Where only a bound is given, the exact number is not on record here.

This assay has as its target T1, Neuromedin-K receptor (Homo sapiens, UniProt P29371).
T1 sequence (P29371 whole entry): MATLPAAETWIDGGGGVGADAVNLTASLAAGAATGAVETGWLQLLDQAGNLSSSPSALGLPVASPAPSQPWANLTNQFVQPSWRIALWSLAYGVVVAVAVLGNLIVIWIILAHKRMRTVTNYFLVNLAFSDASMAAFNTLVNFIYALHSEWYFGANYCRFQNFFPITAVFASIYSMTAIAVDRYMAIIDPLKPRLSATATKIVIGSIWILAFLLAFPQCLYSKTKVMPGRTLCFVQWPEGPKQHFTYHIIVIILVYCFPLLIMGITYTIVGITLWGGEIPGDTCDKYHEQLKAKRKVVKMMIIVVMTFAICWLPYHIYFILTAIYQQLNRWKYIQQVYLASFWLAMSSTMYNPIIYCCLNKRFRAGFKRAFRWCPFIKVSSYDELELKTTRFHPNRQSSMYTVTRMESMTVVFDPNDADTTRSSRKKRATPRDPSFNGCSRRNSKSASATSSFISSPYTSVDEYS
Kind of assay: 3H-SB222200 Binding Competition Assay with Human NK-3 Receptor: The ability of the compounds of the invention to inhibit the binding of the NK-3 receptor selective antagonist SB222200 was assessed by an in vitro radioligand binding assay. Membranes were prepared from Chinese hamster ovary recombinant cells which express the human NK3 receptor. The membranes were incubated with 5 nM 3H-SB222200_(ARC) in a HEPES 25 mM/NaCl 0.1M/CaCl2 1 mM/MgCl2 5 Mm/BSA 0.5%/Saponin 10 μg/ml buffer at pH 7.4 and various concentrations of the compounds of the invention. The amount of tritiated SB222200 bound to the receptor was determined after filtration by the quantification of membrane associated radioactivity using the TopCount-NXT reader (Packard). Competition curves were obtained for compounds of the invention and the concentrations of compounds which displaced 50% of bound radioligand (IC50) were determined and then apparent inhibition constant Ki values were calculated by the following equation: Ki=IC50/(1+[L]/KD) where [L] is the concentration of free radioligand and KD is its dissociation constant at the receptor, derived from saturation binding experiments (Cheng and Prusoff, 1973).

On to `O=C(c1ccc(F)cc1)N1CCn2c(nnc2-c2csc(-c3ccc(Cl)cc3Cl)n2)C1`, for which the Ki is below 500 nM.
Turning to `O=C(c1ccc(-c2cccs2)cc1)N1CCn2c(nnc2-c2csc(-c3ccccc3Cl)n2)C1`, the Ki is below 500 nM.
In the case of `CC1c2nnc(-c3csc(-c4ccc(F)cc4)n3)n2CCN1C(=O)c1ccc(F)c(Cl)c1` (stereo not drawn), the Ki was below 500 nM.
Under `CC1c2nnc(-c3csc(-c4ccc(F)cc4)n3)n2CCN1C(=O)c1ccc(Cl)c(F)c1` (stereo not drawn) stands below 500 nM; under `O=C(c1ccc(F)cc1)N1CCn2c(nnc2-c2csc(-c3ccccc3Cl)n2)C1`, below 500 nM; under `O=C(c1ccc(-c2cccs2)cc1)N1CCn2c(nnc2-c2csc(-c3ccc(Br)cc3)n2)C1`, below 500 nM.
As to `O=C(c1ccc(F)cc1)N1CCn2c(nnc2-c2csc(-c3cc(Cl)cc(Cl)c3)n2)C1`, the Ki was below 500 nM.
Under `C[C@@H]1c2nnc(-c3csc(-c4ccc(Cl)cc4)n3)n2CCN1C(=O)c1ccc(F)cc1` stands below 500 nM; under `CC1c2nnc(-c3csc(-c4ccc(F)cc4)n3)n2CCN1C(=O)c1ccc(Cl)c(Cl)c1` (stereo not drawn), below 500 nM; under `O=C(c1ccc(F)cc1)N1CCn2c(nnc2-c2ccc(Cl)cn2)C1`, below 500 nM.
Next, `O=C(c1ccc(F)cc1)N1CCn2c(nnc2-c2csc(-c3ccc(Cl)cc3)n2)C1`: below 500 nM; `O=C(c1ccc(-c2ccccc2)cc1)N1CCn2c(nnc2-c2csc(-c3ccccc3Cl)n2)C1`: below 500 nM.
Under `O=C(c1ccc(F)cc1)N1CCn2c(nnc2-c2csc(-c3cccc(Cl)c3)n2)C1` stands below 500 nM.
For `CC1c2nnc(-c3csc(-c4ccccc4Cl)n3)n2CCN1C(=O)c1ccc(F)cc1` (stereo not drawn), the Ki was below 500 nM.
As to `O=C(c1ccc(F)cc1)N1CCn2c(nnc2-c2csc(-c3ccc(Br)cc3)n2)C1`, the Ki was below 500 nM.
For `Cn1nc(C(=O)N2CCn3c(nnc3-c3ccccn3)C2)cc1-c1ccc(Cl)cc1`, the Ki was above 5000 nM.
Under `O=C(c1ccc(F)cc1)N1CCn2c(nnc2-c2csc(-c3cccc(Cl)c3Cl)n2)C1` stands below 500 nM; under `O=C(c1ccc(-c2cccs2)cc1)N1CCn2c(nnc2-c2csc(Cc3ccc(Cl)cc3)n2)C1`, below 500 nM.
